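Exposure lasted 48 hours, with cells grown in 96-well plates and compounds tested at five concentrations. The concentration for 50% growth inhibition is given as GI50. TGI: concentration producing complete growth inhibition.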
Legend:
Test in all cases: NCI tumour cell line growth inhibition, 48 h
COLO 205 colon = test system: COLO 205 colon
EKVX NSCLC = test system: EKVX NSCLC
OVCAR-3 ovarian = test system: OVCAR-3 ovarian
IGROV1 ovarian = test system: IGROV1 ovarian
UO-31 renal = test system: UO-31 renal
HT29 colon = test system: HT29 colon
KM12 colon = test system: KM12 colon
HS 578T breast = test system: HS 578T breast
HOP-18 NSCLC = test system: HOP-18 NSCLC

Row | Compound | GI50 (COLO 205 colon) | TGI (COLO 205 colon) | GI50 (EKVX NSCLC) | TGI (EKVX NSCLC) | GI50 (OVCAR-3 ovarian) | TGI (OVCAR-3 ovarian) | GI50 (IGROV1 ovarian) | TGI (IGROV1 ovarian) | GI50 (UO-31 renal) | TGI (UO-31 renal) | GI50 (HT29 colon) | TGI (HT29 colon) | GI50 (KM12 colon) | TGI (KM12 colon) | GI50 (HS 578T breast) | TGI (HS 578T breast) | TGI (HOP-18 NSCLC) | GI50 (HOP-18 NSCLC)
1 | COc1ccc(/C(=C(\c2ccccc2)[N+](=O)[O-])c2ccc(OCCN3CCCC3)cc2)cc1 | 1.46 µM | 3.14 µM | 7.29 µM | 21.5 µM | 3.93 µM | 16.2 µM | 3.57 µM | 17.3 µM | 1.12 µM | 4.2 µM | 0.301 µM | 1.82 µM | 2.16 µM | 12.4 µM | 2.32 µM | 10.9 µM |  | 
2 | CC(=O)OC1(C(C)=O)CC2(c3ccccc3)OC1(c1ccccc1)c1ccccc12 (configuration not stated) |  | 21.4 µM |  | > 100 µM |  | > 100 µM |  | 56.7 µM |  | 80.1 µM |  | > 100 µM |  | > 100 µM |  |  | > 100 µM | 
3 | CC(=O)[CH-]C(=O)c1ccccc1.CC(=O)[CH-]C(=O)c1ccccc1.Cl.[O-]CCc1ccccn1.[O-]CCc1ccccn1.[Ti+4] | 29.3 µM | 72.2 µM | 28.9 µM | 78.2 µM | 32.3 µM | > 100 µM | 27.2 µM | 75.3 µM | 17.4 µM | 47.4 µM | 22.4 µM | 77.1 µM | 41.4 µM | > 100 µM |  |  | 94.8 µM | 36.2 µM
4 | CC/C(=C/c1ccc(OC)cc1)[N+](=O)[O-] | 1.89 µM | 3.75 µM | 14.2 µM | 27.2 µM | 1.86 µM | 3.35 µM | 2.82 µM | 8.16 µM | 1.42 µM | 3.04 µM | 2.71 µM | 7.12 µM | 2.24 µM | 5.47 µM | 3.84 µM | 22.2 µM |  | 
5 | CCCCCn1sc(=O)n(Cc2ccc(CNC(=O)C(C)c3ccc(CC(C)C)cc3)cc2)c1=O (configuration not stated) | 0.598 µM | 2.08 µM | 1.41 µM | 2.82 µM | 0.488 µM | 1.63 µM | 0.645 µM | 2 µM | 0.561 µM | 1.99 µM | 0.949 µM | 2.55 µM | 1.59 µM | 3.3 µM | 1.56 µM | 4.36 µM |  | 
6 | Cc1ccc(C)c(N2CCN(c3ccncc3N)CC2)c1 | 13.8 µM | 27.1 µM | 10.8 µM | 84.8 µM | 12.2 µM | 58.8 µM | 23.9 µM | > 100 µM | 17.2 µM | 96.3 µM | 11.2 µM | 26.3 µM | 15.1 µM | 47.1 µM | 14.8 µM | 38.4 µM |  | 
7 | CN(N=O)c1ccc(/C=C/c2ccnc3ccccc23)cc1 |  | > 100 µM |  | > 100 µM |  | > 100 µM |  | > 100 µM |  | > 100 µM |  | > 100 µM |  | > 100 µM |  | > 100 µM |  | 
8 | CSCSCC(CO)NC(=O)/C=C/c1c(C)[nH]c(=O)[nH]c1=O (configuration not stated) |  |  |  | > 100 µM |  | > 100 µM |  |  |  | > 100 µM |  | > 100 µM |  | > 100 µM |  |  | > 100 µM | 
9 | O=C1N(c2ccc(Cl)cc2)C(=O)C2(SC=NN2Cc2ccccc2)N1c1ccc(Cl)cc1 (configuration not stated) |  |  |  | > 100 µM |  | > 100 µM |  | > 100 µM |  | > 100 µM |  | > 100 µM |  | > 100 µM |  |  | > 100 µM | 
10 | COc1cc2c(c3oc4c(O)cccc4c(=O)c13)CC(C(C)(O)CCl)O2 (configuration not stated) |  | 1.85 µM |  | 21.9 µM |  | 7.43 µM |  | 8.28 µM |  | 4.9 µM |  | 15.9 µM |  | 4.56 µM |  | 6.89 µM |  | 
11 | CC1CCc2c(C(=O)Nc3ncc(Cc4cccc([N+](=O)[O-])c4)s3)csc2C1 (configuration not stated) | 0.37 µM | 19.6 µM | 1.11 µM | > 100 µM | 0.391 µM | 2.25 µM | 0.753 µM | > 100 µM | 0.815 µM | > 100 µM | 0.38 µM | > 100 µM | 0.442 µM | > 100 µM | 0.72 µM | > 26.2 µM |  | 
12 | Cc1cnc(C(=O)Nc2nc3ccc(S(=O)(=O)Nc4ccc(C(C)(C)C)cc4)cc3[nH]2)cn1 | 0.503 µM | 7.74 µM | 0.789 µM | 14 µM | 0.308 µM | 1.32 µM | 0.776 µM | 12.3 µM | 0.583 µM | 19.4 µM | 0.388 µM | 4.23 µM | 0.349 µM | 11 µM | 0.422 µM | 10.6 µM |  | 
13 | N#Cc1cnn(C(=O)c2nn(-c3ccc(Cl)cc3)cc2O)c1N | 0.619 µM | 2.13 µM | 0.378 µM | 10.4 µM | 0.545 µM | 8.44 µM | 0.365 µM | 12.7 µM | 0.292 µM | 5.81 µM | 1 µM | 14.3 µM | 0.374 µM | 22.2 µM | 0.192 µM | 3.43 µM |  | 
14 | COc1ccc2c(c1O)[C@@]13CCCC=C1[C@@H](C2)N(C)CC3 |  | > 100 µM |  | > 100 µM |  | > 100 µM |  | > 100 µM |  | > 100 µM |  | > 100 µM |  | > 100 µM |  | > 100 µM |  | 
15 | CCOC(=O)Nc1cc2c(c(N)n1)N=C(c1ccc(Cl)cc1Cl)CN2 |  | 4.85 µM |  | 31.9 µM |  | 0.0133 µM |  | 34.3 µM |  | 22.7 µM |  | 0.641 µM |  | 2.83 µM |  | 1.41 µM |  | 
16 | CCCC(O)c1ccc2[nH]c3c(C)cc([N+](=O)[O-])c(C)c3c2c1 (configuration not stated) |  | > 100 µM |  | > 100 µM |  | > 100 µM |  |  |  | > 100 µM |  | > 100 µM |  | > 100 µM |  |  | > 100 µM | 
17 | NP1(Oc2ccc(F)cc2)=NP(N)(Oc2ccc(F)cc2)=NP(Oc2ccc(F)cc2)(Oc2ccc(F)cc2)=N1 (configuration not stated) |  | 19.4 µM |  | 19 µM |  | 16 µM |  | 6.31 µM |  | 14.2 µM |  | 17.2 µM |  | 16.2 µM |  | 17.7 µM |  | 
18 | COc1cc(OC)c(/C=C/S(=O)(=O)Cc2ccc(OC)c(N)n2)c(OC)c1 | < 0.01 µM | < 0.01 µM | 0.0278 µM | > 100 µM | < 0.01 µM | < 0.01 µM | < 0.0122 µM | > 100 µM | < 0.0126 µM | > 100 µM | < 0.0174 µM | > 54.8 µM | < 0.01 µM | > 100 µM | < 0.01 µM | > 100 µM |  | 
